EC50 data for 12 molecules are collected here from patent US10669258B2, “3-sulfonyl-5-aminopyridine-2,4-diol APJ agonists” (BRISTOL-MYERS SQUIBB COMPANY, priority 2016, dated 2020).

One assay concerns the target T1, human APJ receptor (Homo sapiens, UniProt P35414).
T1 construct: expressed in transfected cells; host or cells: HEK293
T1 sequence (P35414 1-380): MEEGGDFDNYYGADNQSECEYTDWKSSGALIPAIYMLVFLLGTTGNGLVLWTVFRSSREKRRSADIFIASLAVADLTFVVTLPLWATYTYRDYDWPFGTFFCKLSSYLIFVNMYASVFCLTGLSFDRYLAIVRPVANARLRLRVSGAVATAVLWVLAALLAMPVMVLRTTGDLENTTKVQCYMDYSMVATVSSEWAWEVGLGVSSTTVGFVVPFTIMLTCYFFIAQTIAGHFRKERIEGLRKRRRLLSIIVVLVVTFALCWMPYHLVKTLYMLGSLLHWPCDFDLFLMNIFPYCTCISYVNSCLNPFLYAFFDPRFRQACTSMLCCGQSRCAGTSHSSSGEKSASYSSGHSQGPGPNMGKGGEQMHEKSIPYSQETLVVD
Nature of the assay: Intracellular cAMP accumulation assay (APJ hcAMP, HTRF). To be noted: HEK293 cells stably expressing human APJ receptor; inhibition of forskolin-mediated cAMP production; Table 1; read-out: hAPJ cAMP EC50 Potency range. It is filed as cell-based. The procedure, abridged:
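Inhibition of forskolin (2 μM)-driven cAMP, with […], measured by HTRF after 30 min room-temperature compound exposure of stably transfected HEK293 cells. cAMP read from a standard curve; variable-slope fit gives EC50, and maximal inhibition is normalised to (Pyr1)apelin-13 as 100%.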
Background: Changes in cAMP serve as a functional read-out for many G protein-coupled receptors.
As a reminder, the EC50 is the midpoint of the concentration-response curve. As to `CCN(c1ccccc1)c1c(-c2cnn(C)c2)nc(O)c(S(=O)(=O)c2ccc(-c3ccccc3C(=O)NC3CC3)cc2)c1O` [Example 153, N-cyclopropyl-4′-((5-(ethyl(phenyl)amino)-2,4-dihydroxy-6-(1-methyl-1H-pyrazol-4-yl)pyridin-3-yl)sulfonyl)-[1,1′-biphenyl]-2-carboxamide], the EC50 was in the range of 0.01 to 10 nM.

On to `CCCCc1nc(O)c(S(=O)(=O)c2ccc(-c3cccnc3C)cc2)c(O)c1N(C)c1ccccc1` [Example 017, 6-butyl-5-(methyl(phenyl)amino)-3-((4-(2-methylpyridin-3-yl)phenyl)sulfonyl)pyridine-2,4-diol], for which the EC50 was 0.01 to 10 nM.

With `CCCCc1nc(O)c(S(=O)(=O)c2ccc(-c3ccnc(F)c3C)cc2)c(O)c1N1CCCCC1c1ccccc1` (stereo not drawn) [Example 128, 6-butyl-3-((4-(2-fluoro-3-methylpyridin-4-yl)phenyl)sulfonyl)-5-(2-phenylpiperidin-1-yl)pyridine-2,4-diol], the EC50 fell in the range of 10 to 100 nM.

In the case of `CCCCc1nc(O)c(S(=O)(=O)c2ccc(-c3ccncc3C)cc2)c(O)c1N(c1ccccc1)C(C)C` [Example 027, 6-butyl-5-(isopropyl(phenyl)amino)-3-((4-(3-methylpyridin-4-yl)phenyl)sulfonyl)pyridine-2,4-diol], the EC50 is 0.01 to 10 nM.

Take `CCCCc1nc(O)c(S(=O)(=O)c2ccc(-c3ccncc3C)cc2)c(O)c1N(C)c1ccc(C)cc1` [Example 094, 6-butyl-5-(methyl(p-tolyl)amino)-3-((4-(3-methylpyridin-4-yl)phenyl)sulfonyl)pyridine-2,4-diol]: the EC50 fell in the range of 0.01 to 10 nM.

As for `CC(C)N(c1ccccc1)c1c(-c2ccn(C)n2)nc(O)c(S(=O)(=O)c2ccc(-c3ccccc3C(N)=O)cc2)c1O` [Example 166, 4′-((2,4-dihydroxy-5-(isopropyl(phen-yl)amino)-6-(1-methyl-1H-pyrazol-3-yl)pyridin-3-yl)sulfonyl)-[1,1′-biphenyl]-2-carboxamide], the EC50 was 0.01 to 10 nM.

Take `CCN(c1ccccc1)c1c(-c2ccn(C)n2)nc(O)c(S(=O)(=O)c2ccc(-c3ccccc3C(=O)NC)cc2)c1O` [Example 056, 4′-((5-(ethyl(phenyl)amino)-2,4-dihydroxy-6-(1-methyl-1H-pyrazol-3-yl)pyridin-3-yl)sulfonyl)-N-methyl-[1,1′-biphenyl]-2-carboxamide]: the EC50 was 0.01 to 10 nM.

`CCCCc1nc(O)c(S(=O)(=O)c2ccc(-c3ccccc3C(=O)NC)cc2)c(O)c1N(CC)c1cccc(C#N)c1` [Example 185, 4′-((6-butyl-5-((3-cyanophenyl)(ethyl)a-mino)-2,4-dihydroxypyridin-3-yl)sulfonyl)-N-methyl-[1,1′-biphenyl]-2-carboxamide]: the EC50 fell in the range of 0.01 to 10 nM.

As to `Cc1nc(F)ccc1-c1ccc(S(=O)(=O)c2c(O)nc(-c3ccn(C)n3)c(N(c3ccccc3)C(C)C)c2O)cc1` [Example 157, 3-((4-(6-fluoro-2-methylpyridin-3-yl)phenyl)sulfonyl)-5-(isopropyl(phen-yl)amino)-6-(1-methyl-1H-pyrazol-3-yl)pyridine-2,4-diol], the EC50 lay in the range of 0.01 to 10 nM.

The assay is the same for the next values; noted with them: Human APJ cAMP Potency range, HEK293 cells stably expressing human APJ receptor; inhibition of forskolin-mediated cAMP production.
In turn, `CCCCc1nc(O)c(C(=O)N2CC[C@@H](c3ccccc3)C2)c(O)c1N(CC)c1ccccc1` [Example 001, (S)-(6-butyl-5-(ethyl(phenyl)amino)-2,4-dihydroxypyridin-3-yl)(3-phenylpyrrolidin-1-yl)methanone] showed an EC50 of 10 to 100 nM.

The assay is the same for the next values; noted with them: hAPJ cAMP EC50 Potency range, HEK293 cells stably expressing human APJ receptor; inhibition of forskolin-mediated cAMP production; Table 1.
`CCCCc1nc(O)c(C(=O)N2CCC(c3ccc(Cl)cn3)C2)c(O)c1N(CC)c1ccccc1` (stereo not drawn) [Example 067, (6-butyl-5-(ethyl(phenyl)amino)-2,4-dihydroxypyridin-3-yl)(3-(5-chloropyridin-2-yl)pyrrolidin-1-yl)methanone] yielded an EC50 of 0.01 to 10 nM.

`CCCCc1nc(O)c(C(=O)N2CCC(c3ncc(F)cc3F)C2)c(O)c1N(CC)c1ccccc1` (stereo not drawn) [Example 071, (6-butyl-5-(ethyl(phenyl)amino)-2,4-dihydroxypyridin-3-yl)(3-(3,5-difluoropyridin-2-yl)pyrrolidin-1-yl)methanone]: the EC50 was 0.01 to 10 nM.
